Test results from patent publication US11926845B2, “Cell culture method and automatic cell culture apparatus” (Hitachi, Ltd., priority 2020, dated 2024).

What was measured:
[1] = system: human iPS cells (201B7 strain); assay: hCG secretion into culture supernatant (ELISA) of 201B7 strain cultured on coated planar mesh; format: cell-based
Protocol: In the present example, the human iPS cells (201B7 strain) were cultured by using a culture substrate in which the planar mesh made of nickel was coated with parylene or Au, and an effect of the ROCK inhibitor on cell differentiation was investigated.
A cell culture substrate was prepared in the same procedure as in the first example. The i-Matrix (Nippi Inc.) adjusted to a concentration of 50 ng/μl as a scaffold material of cells was added so as to cover the mesh and the mixture was treated at 4° C. for 3 days. Thereafter, after i-Matrix was removed, and the washing was performed with an Essential 8 medium (GIBCO Co.), the human iPS cells (201B7 strain) was adjusted in the Essential 8 medium so as to be 1×10^5/ml, and an iPS cell suspension containing 10 μM of the ROCK inhibitor (Y-27632, Wako Pure Chemical Co.) was added on the mesh in the same manner as the scaffold material, and the cells were incubated at 37° C. in the cell culture apparatus adjusted to the CO2 concentration of 5%.
After 24 hours from seeding, a total amount of iPS cell suspension was removed and replaced with a new Essential 8 medium, so that the ROCK inhibitor was completely removed once. Then, every 4 days, half the amount of culture supernatant was recovered, and the amount of culture supernatant was maintained by adding a new Essential 8 medium in an amount equal to a removed amount. The ROCK inhibitor (Y-27632, Wako Pure Chemical Co.) was added to a part of the medium of the cell culture substrate on which the 201B7 strain is seeded from Day 9 of culturing or Day 13 of the culturing so that the final concentration of the ROCK inhibitor was 20 μM, and the culturing was performed for 3 weeks.
(§1) A secretion amount of hCG, which is one of trophoblast differentiation markers, was quantified by using the recovered culture supernatant. For the quantification, a value of OD450 was detected with an absorbance plate reader (Corona Electric Co. Ltd.) by using a Human hCG ELISA Kit (Abcam Co.). Details of an ELISA reaction and a measurement method followed a manual of a kit.

[2] = system: 253G1 strain; assay: hCG secretion into culture supernatant (ELISA) of 253G1 strain cultured on coated planar mesh; format: cell-based, human; conditions: for secretion amount of hCG, increase as compared with the case where the ROCK inhibitor was not added / secretion amount of hCG, course after the increase: 253G1 strain; for secretion amount of hCG, course after the increase: after Day 17
Protocol: Preparation of the cell culture substrate and seeding of the iPS cells were carried out in the same manner as in the second example. After 24 hours from seeding, a total amount of iPS cell suspension was removed and replaced with a new Essential 8 medium, so that the ROCK inhibitor was completely removed once. Then, every 4 days, half the amount of the culture supernatant was recovered, and the amount of culture supernatant was maintained by adding a new Essential 8 medium in an amount equal to a removed amount. The ROCK inhibitor (Y-27632, Wako Pure Chemical Co.) was added to a part of the medium of the cell culture substrate on which the 253G1 strain is seeded from Day 9 of culturing or Day 13 of the culturing so that a final concentration was 20 μM, and the culturing was performed for 3 weeks.
as §1, with “The secretion” for “A secretion”, “quantification, the” for “quantification, a”, “detected by” for “detected with”, “Electric Co.)” for “Electric Co. Ltd.)”

secretion amount of hCG, increase as compared with the case where the ROCK inhibitor was not added ([2]; mesh coated with Au, 20 μM added from Day 9 of culturing, on Day 17): about twice
secretion amount of hCG, increase as compared with the case where the ROCK inhibitor was not added ([2]; mesh coated with Au, 20 μM added from Day 9 of culturing, on Day 21): about three times
secretion amount of hCG, increase as compared with the case where the ROCK inhibitor was not added ([2]; mesh coated with Au, 20 μM added from Day 13 of culturing, on Day 17): five times
secretion amount of hCG, increase as compared with the case where the ROCK inhibitor was not added ([2]; mesh coated with parylene, 20 μM added from Day 9 of culturing, on Day 17): about ten times
secretion amount of hCG, increase as compared with the case where the ROCK inhibitor was not added ([2]; mesh coated with parylene, 20 μM added from Day 13 of culturing, on Day 21): three times
Compound: C[C@@H](N)[C@H]1CC[C@H](C(=O)Nc2ccncc2)CC1 [ROCK inhibitor, Y-27632]
differentiation into trophoblast ([1]; 201B7 strain on planar mesh coated with parylene or Au, re-addition of the ROCK inhibitor): promoted
secretion amount of hCG, increase as compared with the case where the ROCK inhibitor was not added ([1]; 201B7 strain, mesh coated with Au, 20 μM added from Day 9 of culturing, on Day 17): about twice
secretion amount of hCG, increase as compared with the case where the ROCK inhibitor was not added ([1]; 201B7 strain, mesh coated with Au, 20 μM added from Day 9 of culturing, on Day 21): four times
secretion amount of hCG, course after the increase ([1]; 201B7 strain, mesh coated with Au, 20 μM added from Day 13 of culturing, after Day 17): the secretion amount was maintained thereafter
secretion amount of hCG, increase as compared with the case where the ROCK inhibitor was not added ([1]; 201B7 strain, mesh coated with Au, 20 μM added from Day 13 of culturing, on Day 17): about three times
secretion amount of hCG, course after the increase ([1]; 201B7 strain, mesh coated with parylene, 20 μM added from Day 9 of culturing, after Day 13): the secretion amount was maintained thereafter
secretion amount of hCG, increase as compared with a case where the ROCK inhibitor was not added ([1]; 201B7 strain, mesh coated with parylene, 20 μM added from Day 9 of culturing, on Day 13): about twice
secretion amount of hCG, increase as compared with the case where the ROCK inhibitor was not added ([1]; 201B7 strain, mesh coated with parylene, 20 μM added from Day 13 of culturing, on Day 17): about twice
secretion amount of hCG, increase as compared with the case where the ROCK inhibitor was not added ([1]; 201B7 strain, mesh coated with parylene, 20 μM added from Day 13 of culturing, on Day 21): about three times
differentiation into trophoblast cells ([2]; 253G1 strain on planar mesh coated with parylene or Au, addition of the ROCK inhibitor): promoted
secretion amount of hCG, course after the increase ([2]; mesh coated with Au, 20 μM added from Day 13 of culturing): the secretion amount was maintained thereafter
secretion amount of hCG, course after the increase ([2]; mesh coated with parylene, 20 μM added from Day 9 of culturing): the secretion amount was maintained thereafter
